“And” between values parts separate entries of the source, which are not always exact repeats. Equal values may be shown once. Toxic doses and inconclusive results are not listed.
Tested on: P388 leukemia ip, CD2F1 mice, survival T/C
Assay: NCI In Vivo Anticancer Drug Screen. Data for tumor model P388 Leukemia (intraperitoneal) in CD2F1 (CDF1) mice
Conditions: endpoint: median survival time, higher = longer survival
How it was run: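 Mice carrying the transplanted tumor received test compound or vehicle. Survival was recorded in each group, and the value is the treated-group measurement divided by that of the vehicle-treated control group.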

[1] = dose: 50.0 mg/kg/injection, schedule: Q01DX005 (ip), vehicle: Klucel (hydroxypropylcellulose) (HPC)
[2] = dose: 100.0 mg/kg/injection, schedule: Q01DX005 (ip), vehicle: Klucel (hydroxypropylcellulose) (HPC)
[3] = dose: 200.0 mg/kg/injection, schedule: Q01DX005 (ip), vehicle: Klucel (hydroxypropylcellulose) (HPC)

## COc1cc2c(cc1OC)[C@H]1C(=O)c3cc4c(cc3[C@H]1N(C)C2=O)OCO4
dose: 12.5 mg/kg/injection, schedule: Q01DX005 (ip), vehicle: distilled water + Tween-80
  T/C: 94 % of control
dose: 25.0 mg/kg/injection, schedule: Q01DX005 (ip), vehicle: distilled water + Tween-80
  T/C: 96 % of control
dose: 50.0 mg/kg/injection, schedule: Q01DX005 (ip), vehicle: distilled water + Tween-80
  T/C: 91 % of control

## Cc1cc(=O)[nH]c2cc(O)c(C(=O)O)cc12
[1]
  T/C: 93 % of control
[2]
  T/C: 93 % of control
[3]
  T/C: 88 % of control

## COc1cc(C(=O)C(C=O)c2ccccc2)c([N+](=O)[O-])cc1OC (stereo not drawn)
[1]
  T/C: 94 % of control
[2]
  T/C: 98 % of control
[3]
  T/C: 92 % of control

## O=S(CF)c1ccc(Cl)cc1 (stereo not drawn)
dose: 100.0 mg/kg/injection, schedule: Q04DX003 (ip), vehicle: saline with Tween-80
  T/C: 93 % of control
dose: 200.0 mg/kg/injection, schedule: Q04DX003 (ip), vehicle: saline with Tween-80
  T/C: 102 % of control
dose: 400.0 mg/kg/injection, schedule: Q04DX003 (ip), vehicle: saline with Tween-80
  T/C: 107 % of control

## COC(=O)C1=C[C@H]2O[C@H]2[C@H](O)C1
dose: 1.5 mg/kg/injection, schedule: Q01DX005 (ip), vehicle: Klucel (hydroxypropylcellulose) (HPC)
  T/C: 100 % of control
dose: 3.0 mg/kg/injection, schedule: Q01DX005 (ip), vehicle: Klucel (hydroxypropylcellulose) (HPC)
  T/C: 106 % of control
dose: 6.0 mg/kg/injection, schedule: Q01DX005 (ip), vehicle: Klucel (hydroxypropylcellulose) (HPC)
  T/C: 101 % of control
dose: 12.0 mg/kg/injection, schedule: Q01DX005 (ip), vehicle: Klucel (hydroxypropylcellulose) (HPC)
  T/C: 100 % of control

## CC1(C)OC(=O)N=C1c1ccc(Cl)cc1
dose: 60.0 mg/kg/injection, schedule: Q01DX005 (ip), vehicle: Klucel (hydroxypropylcellulose) (HPC)
  T/C: 107 % of control
dose: 120.0 mg/kg/injection, schedule: Q01DX005 (ip), vehicle: Klucel (hydroxypropylcellulose) (HPC)
  T/C: 101 % of control

## O=C1C(Cl)=C(NC(CO)(CO)CO)C(=O)c2ccccc21
dose: 25.0 mg/kg/injection, schedule: Q01DX001 (ip), vehicle: saline with Tween-80
  T/C: 92 % of control
dose: 50.0 mg/kg/injection, schedule: Q01DX001 (ip), vehicle: saline with Tween-80
  T/C: 93 % of control
dose: 100.0 mg/kg/injection, schedule: Q01DX001 (ip), vehicle: saline with Tween-80
  T/C: 101 % of control

## O=S(=O)(CS(=O)(=O)Oc1ccccc1)Oc1ccccc1
dose: 100.0 mg/kg/injection, schedule: Q04DX002 (ip), vehicle: saline with Tween-80
  T/C: 104 % of control
dose: 200.0 mg/kg/injection, schedule: Q04DX002 (ip), vehicle: saline with Tween-80
  T/C: 96 % of control
dose: 400.0 mg/kg/injection, schedule: Q04DX002 (ip), vehicle: saline with Tween-80
  T/C: 98 % of control

## COc1cccc2c1C(=O)c1c(O)c3c(c(O)c1C2=O)C[C@@](O)(/C(C)=N/NC(=O)c1ccc(N(C)C)cc1)C[C@@H]3OC1CC(N)C(O)C(C)O1 (stereo partly drawn)
dose: 0.12 mg/kg/injection, schedule: Q01DX009 (ip), vehicle: water
  T/C: 94 % of control
dose: 0.25 mg/kg/injection, schedule: Q01DX009 (ip), vehicle: water
  T/C: 111 % of control
dose: 0.5 mg/kg/injection, schedule: Q01DX009 (ip), vehicle: water
  T/C: 150 % of control and 154 % of control
dose: 1.0 mg/kg/injection, schedule: Q01DX009 (ip), vehicle: water
  T/C: 154 % of control and 164 % of control
dose: 2.0 mg/kg/injection, schedule: Q01DX009 (ip), vehicle: water
  T/C: 164 % of control and 181 % of control
dose: 4.0 mg/kg/injection, schedule: Q01DX009 (ip), vehicle: water
  T/C: 157 % of control and 172 % of control
dose: 8.0 mg/kg/injection, schedule: Q01DX009 (ip), vehicle: water
  T/C: 86 % of control
dose: 10.0 mg/kg/injection, schedule: Q01DX001 (ip), vehicle: water
  T/C: 159 % of control
dose: 16.0 mg/kg/injection, schedule: Q01DX009 (ip), vehicle: water
  T/C: 89 % of control
dose: 20.0 mg/kg/injection, schedule: Q01DX001 (ip), vehicle: water
  T/C: 166 % of control
dose: 40.0 mg/kg/injection, schedule: Q01DX001 (ip), vehicle: water
  T/C: 115 % of control

## O=C1c2ccccc2OCC1CS(=O)(=O)CC1COc2ccccc2C1=O (stereo not drawn)
dose: 100.0 mg/kg/injection, schedule: Q04DX003 (ip), vehicle: saline
  T/C: 98 % of control
dose: 200.0 mg/kg/injection, schedule: Q04DX003 (ip), vehicle: saline
  T/C: 97 % of control
dose: 400.0 mg/kg/injection, schedule: Q04DX003 (ip), vehicle: saline
  T/C: 91 % of control

From PubChem BioAssay AID330 (DTP/NCI, 2004)
